Key:
[1] = design: method as in REACH dossier; conditions: method as noted in the cell (shake flask, solubility ratio, HPLC, BCFBAF, pH); ref REACH dossier; cited from earlier work
[2] = ref REACH dossier; cited from earlier work
[3] = tested on: carp; design: method as in REACH dossier; conditions: carp 28d pH7; ref REACH dossier; cited from earlier work
[4] = RT-S9 substrate depletion assay, individual compounds, with IVIVE; conditions: tested individually
Experimental: The in vitro intrinsic clearance by the S9 fraction of rainbow trout liver was measured for the same 11 anionic surfactants used in the BCF experiment as separate compounds. […] An established RT-S9 substrate depletion assay was employed,[25]−[27] predating the currently available OECD guideline 319B.[28] A single batch of the characterized liver homogenate material was prepared at the US EPA lab in Duluth and shipped on dry ice to the testing facilities at the University of Amsterdam. The test was conducted using the same method applied for a series of cationic surfactants in Droge et al.[29] and is summarized together with the in vitro–in vivo extrapolation in Text S4.
(§1) Text S4: Trout liver S9 parent depletion assay details and IVIVE
(§2) Liver tissue was separately pooled from the same five rainbow trout (three males/two females, ~300 g, liver weight ~3 g) used also for the RT-S9 study on a series of cationic surfactants (Droge et al., 2021b). The liver sample was homogenized in an appropriate buffer and then centrifuged to yield a 13,000 x g supernatant (the ‘S9 fraction’, lacking only mitochondrial fractions). No further refinement towards microsomal fractions was made to remove cytosolic and lysosomal components.
(§3) Upon arrival at the University of Amsterdam the liver
(§4) S9 material was stored in a -80 °C freezer until use.
(§5) Individual chemicals were first dissolved in methanol and then further diluted to 20% methanol in 100 mM phosphate buffer to make a ~20 µM stock solution, which was then spiked as 10 µL in 190 µL of active S9 mixture. The active S9 mixture consisted of 100 mM potassium phosphate-buffered saline (PPBS) adjusted to pH 7.8, 2 mM β-NADPH, 2 mM UDPGA, 0.1 mM PAPS, 5 mM GSH, 10 μg/mL alamethicin (in methanol carrier; 0.1% v/v final concentration), and 2 mg/mL S9 protein. The substrate depletion assays were performed using the multiple vial method described in OECD TG 319B, employing two or three separately spiked series.
(§6) Reactions were performed at 11 °C in a temperature-controlled water bath (B. Braun Frigomix-R) that was placed on a 2 cm travel path shaker (Gerhardt LS 10) set at 45 rpm. As a positive […]
(§7) alkylsulfonates, no additional assays with inactivated RT-S9 were performed.
(§8) Reactions were quenched with 600 µL ice-cold acetonitrile. After 10 s vortexing and 5 min centrifugation (Hermle Z300, 2500 rpm), 100 µL clear supernatant was transferred into 300 µL glass inserts placed in new autosampler vials, and mixed with 100 µL pure water. Concentrations were measured using a Prominence UFLC-XR system (Shimadzu) coupled to a tandem mass spectrometer (QTRAP 4000, Applied Biosystems) with a Turbo Ion spray source operated at 400 ◦C. For chromatographic separations, a 100 x 2.1mm x 2.7 µm Supelco Ascentis Express column was used (40 °C), with eluent A: pure water with 2 mM ammonium acetate, and eluent […]
(§9) prepared in 50% acetonitrile/water, calibration curves used covered at least four points in a log-linear range. The lowest external standard to fit the log-linear calibration curve served as limit of quantification, requiring a peak of at least 10x the average noise.
(§10) Each vial was treated as an independent vial with recorded exposure time. Log-transformed concentration data of the parent compound were plotted against exposure time (min) and analysed using Graphpad PRISM 8. […]
(§11) the slope (min-1) was multiplied by -2.3 and by 60 (min h-1) to obtain a first order depletion rate […]
(§12) Extrapolation of kdep to whole body rate biotransformation rate constant (kB-S9) The basic approach to extrapolate first order depletion rate constants (k dep) to whole body

[5] = RT-S9 substrate depletion assay, mixture of 9 anionic surfactants (AnionMixture); conditions: tested in a mixture
Experimental: An established RT-S9 substrate depletion assay was employed,[25]−[27] predating the currently available OECD guideline 319B.[28] A single batch of the characterized liver homogenate material was prepared at the US EPA lab in Duluth and shipped on dry ice to the testing facilities at the University of Amsterdam. The test was conducted using the same method applied for a series of cationic surfactants in Droge et al.[29] and is summarized together with the in vitro–in vivo extrapolation in Text S4.
as §1, §2, §3, §4, §5, §6, §7, §8, §9, §10, §11, §12

[6] = marked * = measured; used for IVIVE; same values as Table 3; cited from earlier work
[7] = tested on: rainbow trout; conditions: rainbow trout, similar water hardness; cited from earlier work
[8] = tested on: Danio rerio; conditions: in vivo, pH 7.6; cited from earlier work
[9] = tested on: several species; design: method as in doi:10.1186/s12302-020-00435-1; conditions: LSC of radiolabeled compound, upper boundary; cited from earlier work
[10] = design: method as in REACH dossier; conditions: experimental, several studies; ref REACH dossier; cited from earlier work
[11] = tested on: Cyprinus carpio; conditions: in vivo; cited from earlier work

Compound	LogKow [1]	Degradation information ~28d-sludge test (% degradable) [2]	other results
CCCCCCCCCCCCCCCCCCOP(=O)([O-])[O-].[K+].[K+] [1-Octadecanol, phosphate, potassium salt]	8.556	0%	–
CC(CC(=O)O)CC(C)(C)C (stereo not shown) [3,5,5-trimethylhexanoic acid]	–	96%	BCF [3]: 1 to 7 L/kg
CCCCCCCC(C=O)NCCCCCC(=O)O (stereo not shown) [6-[(1-formyloctyl)amino]hexanoic acid]	2.47	98%	–
CCCCC(CC)COP(=O)(O)OCC(CC)CCCC (stereo not shown) [BEHP, bis(2-ethylhexyl)phosphate]	–	–	CLint,S9 [4]: n.s.; Slope of depletion curve (log concentration vs time) ([4]; 2 mg/mL S9 protein, 11 °C): -0.0001 min-1; Slope of depletion curve (log concentration vs time) [5]: -0.0003 min-1; log DMW, membrane-water distribution ratio [6]: 3.81
CCCCCCCCCC(C)c1ccc(S(=O)(=O)O)cc1 (stereo not shown) [C11-2-LAS, reference compound]	–	–	BCF [7]: 6 L kg^–1
CCCCCCCCCCCC(=O)O [C11CO2]	–	–	BCF [8]: 255 L/kg; Exp BCF [8]: 255
CCCCCCCCCCCCOS(=O)(=O)[O-].[Na+] [C12SO4, sodium dodecylsulfate]	–	94-97%	BCF [9]: 1–7.15 L kg^–1; BCF [10]: 1-10
CCCCCCCCCCCCCCOS(=O)(=O)O [C14SO4]	–	–	BCF [11]: 11 L kg^–1
CCCCC(CC)COP(=O)(O)O (stereo not shown) [[(2-ethylhexyl)oxy]phosphonic acid]	< 3	26-78%	–
CCCCCCC(O)CCCCCCCCCCC(=O)[O-].CCCCCCCCCCCCCCCCCC(=O)[O-].[Li+].[Li+] (stereo not shown) [dilithium(1+) ion 12-hydroxyoctadecanoate octadecanoate]	–	74-97%	–
CCCCCCC(O)CCCCCCCCCCC(=O)[O-].[Li+] (stereo not shown) [lithium(1+) ion 12-hydroxyoctadecanoate]	–	74-97%	–
CCCCCCCCC(=O)O [nonanoic acid]	3.42	68 -75%	–
CCCCCCCCP(=O)(O)O [octylphosphonic acid]	2.7	65-88%	–
CCCCC(CC)COC(=O)CC(C(=O)OCC(CC)CCCC)S(=O)(=O)[O-].[K+] (stereo not shown) [potassium 1,4-bis[(2-ethylhexyl)oxy]-1,4-dioxobutane-2-sulfonate]	2.0	83.5-100%	–
CCCCCCCCCCCCOP(=O)([O-])O.[K+] [potassium dodecyl hydrogen phosphate]	2.74	4-63%	–
CC(C)CP(=S)([S-])CC(C)C.[Na+] [sodium diisobutylphosphinodithioate]	-1.64	78,8%	–

Source: PMC9118553, “In Vivo Bioconcentration of 10 Anionic Surfactants in Rainbow Trout Explained by In Vitro Data on Partitioning and S9 Clearance” (Environmental Science & Technology, 2022)
